Assay results published in patent publication US20230072860A1, “ISOXAZOLINE OXIME FORMATE COMPOUND, PREPARATION METHOD THEREFOR, HERBICIDAL COMPOSITION AND USE THEREOF” (QINGDAO KINGAGROOT CHEMICAL COMPOUND CO., LTD., priority 2020, published 2023).

Experiments:
Assay in all cases: Experiment on weeding effect in post-emergence stage
Type in all cases: in vivo
Details in all cases: dose 15 g a.i./ha, fresh weight control rate level
[1] = tested on: Veronica didyma Tenore
Excerpt: (§1) Experiment on weeding effect in post-emergence stage:
(§2) Monocotyledonous and dicotyledonous weed seeds (Descurainia sophia, Capsella bursa-pastoris, Abutilon theophrasti, Galium aparine, Stellaria media, Lithospermum arvense, Rorippa indica, Alopecurus aequalis, Alopecurus japonicus, Beckmannia syzigachne, Sclerochloa dura, Conyza Canadensis, Phleum paniculatum, Veronica didyma Tenore, Eleusine indica, Bromus japonicus, Aegilops tauschii, Phalaris arundinacea, Amaranthus retroflexus, Chenopodium album, Commelina communis, Sonchus arvensis, Convolvulus arvensis, Cirsium setosum, Solanum nigrum, Acalypha australis, Digitaria sanguinalis, Echinochloa crusgalli, Setaria viridis, Setaria glauca, Leptochloa chinensis, Monochoria vaginalis, Sagittaria trolia, Scirpus juncoides, Cyperus rotundus, Cyperus iria, Cyperus difformis, Elmbristylis, Portulaca oleracea, Xanthium sibiricum, Pharbitis nil) and major crop seeds (wheat, corn, rice, soybean, cotton, oilseed rape, millet, sorghum, potato, sesame, ricinus) were placed in plastic pots filled with soil, then covered with 0.5-2 cm of soil, allowed to grow in a good greenhouse environment. After 2 weeks of sowing, the test plants were treated in the 2-3 leaf stage. The tested compounds of the present invention were respectively dissolved in acetone, then added with Tween 80 and 1.5 liter/ha of emulsifiable concentrate of methyl oleate as synergist, diluted with a certain amount of water to obtain a solution with a certain concentration, and sprayed with a spray tower onto the plants. After the application, the plants were cultured for 3 weeks in the greenhouse, and then the experimental results of the weeding were counted. The doses of the used compounds were 500, 250, 125, 60, 15 g a.i./ha, and the averages were obtained by repeating for three times.

[2] = tested on: Digitaria sanguinalis
Excerpt: as §1, §2

[3] = tested on: Galium aparine
Excerpt: as §1, §2

[4] = tested on: Amaranthus retroflexus
Excerpt: as §1, §2

[5] = tested on: Setaria viridis
Excerpt: as §1, §2

[6] = tested on: Eleusine indica
Excerpt: as §1, §2

[7] = tested on: Abutilon theophrasti
Excerpt: as §1, §2

[8] = tested on: Leptochloa chinensis
Excerpt: as §1, §2

[9] = tested on: Echinochloa crusgalli
Excerpt: as §1, §2

| SMILES | weeding effect in post-emergence stage, Veronica didyma Tenore (level) [1] | weeding effect in post-emergence stage, Digitaria sanguinalis (level) [2] | weeding effect in post-emergence stage, Galium aparine (level) [3] | weeding effect in post-emergence stage, Amaranthus retroflexus (level) [4] | weeding effect in post-emergence stage, Setaria viridis (level) [5] | weeding effect in post-emergence stage, Eleusine indica (level) [6] | weeding effect in post-emergence stage, Abutilon theophrasti (level) [7] | weeding effect in post-emergence stage, Leptochloa chinensis (level) [8] | weeding effect in post-emergence stage, Echinochloa crusgalli (level) [9] |
| --- | --- | --- | --- | --- | --- | --- | --- | --- | --- |
| Cn1c(=S)n(C)c(=O)n(-c2cc(C3=NOC(C)(C(=O)ON=Cc4ccccc4)C3)c(Cl)cc2F)c1=O (mixture of isomers) [Compound 90] | 5 (Level 5: growth control rate is above 85%) | 5 (Level 5: growth control rate is above 85%) | 5 (Level 5: growth control rate is above 85%) | 5 (Level 5: growth control rate is above 85%) | 5 (Level 5: growth control rate is above 85%) | 5 (Level 5: growth control rate is above 85%) | 5 (Level 5: growth control rate is above 85%) | 5 (Level 5: growth control rate is above 85%) | 5 (Level 5: growth control rate is above 85%) |
| Cc1ccc(C=NOC(=O)C2(C)CC(c3cc(-n4c(=O)n(C)c(=S)n(C)c4=O)c(F)cc3Cl)=NO2)s1 (mixture of isomers) [Compound 118] | 5 (Level 5: growth control rate is above 85%) | 5 (Level 5: growth control rate is above 85%) | 5 (Level 5: growth control rate is above 85%) | 5 (Level 5: growth control rate is above 85%) | 5 (Level 5: growth control rate is above 85%) | 5 (Level 5: growth control rate is above 85%) | 5 (Level 5: growth control rate is above 85%) | 5 (Level 5: growth control rate is above 85%) | 5 (Level 5: growth control rate is above 85%) |
| C/C(=N\OC(=O)C1(C)CC(c2cc(-n3c(=O)n(C)c(=S)n(C)c3=S)c(F)cc2Cl)=NO1)c1ccccc1 (stereo not drawn) [Compound 70] | 5 (Level 5: growth control rate is above 85%) | 5 (Level 5: growth control rate is above 85%) | 5 (Level 5: growth control rate is above 85%) | 5 (Level 5: growth control rate is above 85%) | 5 (Level 5: growth control rate is above 85%) | 5 (Level 5: growth control rate is above 85%) | 5 (Level 5: growth control rate is above 85%) | 5 (Level 5: growth control rate is above 85%) | 5 (Level 5: growth control rate is above 85%) |
| CCC(C)=NOC(=O)C1(C)CC(c2cc(-n3c(=O)n(C)c(=S)n(C)c3=O)c(F)cc2Cl)=NO1 (mixture of isomers) [Compound 79] | 5 (Level 5: growth control rate is above 85%) | 5 (Level 5: growth control rate is above 85%) | 5 (Level 5: growth control rate is above 85%) | 5 (Level 5: growth control rate is above 85%) | 5 (Level 5: growth control rate is above 85%) | 5 (Level 5: growth control rate is above 85%) | 5 (Level 5: growth control rate is above 85%) | 5 (Level 5: growth control rate is above 85%) | 5 (Level 5: growth control rate is above 85%) |
| CCC(CC)=NOC(=O)C1(C)CC(c2cc(-n3c(=O)n(C)c(=S)n(C)c3=S)c(F)cc2Cl)=NO1 (stereo not drawn) [Compound 60] | 5 (Level 5: growth control rate is above 85%) | 5 (Level 5: growth control rate is above 85%) | 5 (Level 5: growth control rate is above 85%) | 5 (Level 5: growth control rate is above 85%) | 5 (Level 5: growth control rate is above 85%) | 5 (Level 5: growth control rate is above 85%) | 5 (Level 5: growth control rate is above 85%) | 5 (Level 5: growth control rate is above 85%) | 5 (Level 5: growth control rate is above 85%) |
| CC(C)=NOC(=O)C1(C)CC(c2cc(-n3c(=S)cc(C(F)(F)F)n(C)c3=O)c(F)cc2Cl)=NO1 (stereo not drawn) [Compound 197] | 5 (Level 5: growth control rate is above 85%) | 5 (Level 5: growth control rate is above 85%) | 5 (Level 5: growth control rate is above 85%) | 5 (Level 5: growth control rate is above 85%) | 5 (Level 5: growth control rate is above 85%) | 5 (Level 5: growth control rate is above 85%) | 5 (Level 5: growth control rate is above 85%) | 5 (Level 5: growth control rate is above 85%) | 5 (Level 5: growth control rate is above 85%) |
| CC=NOC(=O)C1(C)CC(c2cc(-n3c(=O)n(C)c(=S)n(C)c3=O)c(F)cc2Cl)=NO1 (mixture of isomers) [Compound 2] | 5 (Level 5: growth control rate is above 85%) | 5 (Level 5: growth control rate is above 85%) | 5 (Level 5: growth control rate is above 85%) | 5 (Level 5: growth control rate is above 85%) | 5 (Level 5: growth control rate is above 85%) | 5 (Level 5: growth control rate is above 85%) | 5 (Level 5: growth control rate is above 85%) | 5 (Level 5: growth control rate is above 85%) | 5 (Level 5: growth control rate is above 85%) |
| Cn1c(=S)n(C)c(=S)n(-c2cc(C3=NOC(C)(C(=O)ON=C4CCCC4)C3)c(Cl)cc2F)c1=O (stereo not drawn) [Compound 74] | 5 (Level 5: growth control rate is above 85%) | 5 (Level 5: growth control rate is above 85%) | 5 (Level 5: growth control rate is above 85%) | 5 (Level 5: growth control rate is above 85%) | 5 (Level 5: growth control rate is above 85%) | 5 (Level 5: growth control rate is above 85%) | 5 (Level 5: growth control rate is above 85%) | 5 (Level 5: growth control rate is above 85%) | 5 (Level 5: growth control rate is above 85%) |
| Cn1c(=S)n(C)c(=O)n(-c2cc(C3=NOC(C)(C(=O)ON=C(c4ccccc4)c4ccccc4)C3)c(Cl)cc2F)c1=O (stereo not drawn) [Compound 140] | 5 (Level 5: growth control rate is above 85%) | 5 (Level 5: growth control rate is above 85%) | 5 (Level 5: growth control rate is above 85%) | 5 (Level 5: growth control rate is above 85%) | 5 (Level 5: growth control rate is above 85%) | 5 (Level 5: growth control rate is above 85%) | 5 (Level 5: growth control rate is above 85%) | 5 (Level 5: growth control rate is above 85%) | 5 (Level 5: growth control rate is above 85%) |
